The target of experiment [1] is T1, Ba/F3 ERBB2-P780_Y781insGSP (Homo sapiens, UniProt P04626, DUP778-780, cells depend on it).
T1 construct: Ba/F3 cell lines were engineered to express human ERBB2 or EGFR kinases, rendering the cells IL-3 independent
In words: Cell viability assay (CellTiter Glo). As to conditions: 72 hours; 3000 cells per well, 96-well plates; read-out: Cell viability IC50, nM, Ba/F3 ERBB2-P780_Y781insGSP. The experiment is classed as cell-based, mouse. The protocol: Cells were treated with compounds, and cell viability was measured as a metric of kinase inhibition.
The Ba/F3 cell line is IL-3-dependent mouse cell line derived from the C3H mouse strain. Ba/F3 cell lines were engineered to express human ERBB2 or EGFR kinases, rendering the cells IL-3 independent. The lines were generated via retroviral transduction utilizing a Moloney murine leukemia virus (MMLV) promoter, and constructs are stably integrated into the cell genome.
Similarly, Ba/F3 cell lines engineered to express EGFR, ERBB2, or ERBB2 mutants were grown, harvested, counted and seeded at 3000 cells per well in 96-well plates for the data sets shown in Tables B3-B4, and seeded at 300 cells per well in 384-well plates for the data set shown in Table B5. A subset of wells contained media only (low control, “LC”).
Table B2 provides the growth media and number of cells seeded per well for the each cell line.
Compounds were dissolved in DMSO and serially diluted. Serially-diluted compound or a DMSO only control (high control, “HC”) was added to the plated cells in each well. […] The final proportion of DMSO never exceeded 0.1%.
Plates were placed in a 37° C., 5% CO2 incubator for 72 hours. Plates were then removed from the incubator and equilibrated for 15 minutes at room temperature. 40 IA of CellTiter Glo reagent (Promega) was added to measure the relative level of metabolically active cells by quantifying intracellular ATP concentrations. Plates were incubated for 30 minutes at room temperature, and luminescence was measured. […] Graphical curves were fitted using a nonlinear regression model with a sigmoidal dose response.

For a further experiment, the target named is T2, Ba/F3 ERBB2 wt (Homo sapiens, UniProt P04626).
T2 construct: Ba/F3 cell lines were engineered to express human ERBB2 or EGFR kinases, rendering the cells IL-3 independent
In words: Cell viability assay (CellTiter Glo). As to conditions: 72 hours; 3000 cells per well, 96-well plates; read-out: Cell viability IC50, nM, Ba/F3 ERBB2 wt. It is filed as cell-based, mouse. The gist of the method:
(§1)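 Murine Ba/F3 cells made IL-3-independent by retroviral human EGFR or ERBB2 were seeded at 3000 or 300 cells per well and exposed to serially diluted compound (DMSO ≤0.1%) for 72 hours at 37° C, 5% CO2. CellTiter Glo luminescence was normalised to DMSO and media-only controls and fitted to a sigmoidal dose-response.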
(In general: Cellular ATP, detected with luciferase, serves as a proxy for viable cell number.)

For the next experiment, the target named is T3, Ba/F3 ERBB2-G776VC (Homo sapiens, UniProt P04626, DELINS776-776VC, cells depend on it).
T3 construct: Ba/F3 cell lines were engineered to express human ERBB2 or EGFR kinases, rendering the cells IL-3 independent
In words: Cell viability assay (CellTiter Glo). As to conditions: 72 hours; 3000 cells per well, 96-well plates; read-out: Cell viability IC50, nM, Ba/F3 ERBB2-G776VC. It is filed as cell-based, mouse. In outline:
as §1

In another experiment the target is T4, Ba/F3 ERBB2-L869R (Homo sapiens, UniProt P04626, L869R, cells depend on it).
T4 construct: Ba/F3 cell lines were engineered to express human ERBB2 or EGFR kinases, rendering the cells IL-3 independent
The experiment in a line: Cell viability assay (CellTiter Glo). It is filed as cell-based, mouse. As to conditions: 72 hours; 3000 cells per well, 96-well plates; read-out: Cell viability IC50, nM, Ba/F3 ERBB2-L869R. In outline: as §1

In a further experiment the target is T5, Ba/F3 ERBB2-V777L (Homo sapiens, UniProt P04626, V777L, cells depend on it).
T5 construct: Ba/F3 cell lines were engineered to express human ERBB2 or EGFR kinases, rendering the cells IL-3 independent
In words: Cell viability assay (CellTiter Glo). It is filed as cell-based, mouse. As to conditions: 72 hours; 3000 cells per well, 96-well plates; read-out: Cell viability IC50, nM, Ba/F3 ERBB2-V777L. In outline: as §1

In a further experiment the target is T6, Ba/F3 ERBB2-L755S (Homo sapiens, UniProt P04626, L755S, cells depend on it).
T6 construct: Ba/F3 cell lines were engineered to express human ERBB2 or EGFR kinases, rendering the cells IL-3 independent
The experiment in a line: Cell viability assay (CellTiter Glo). It is filed as cell-based, mouse. The settings on record: 72 hours; 3000 cells per well, 96-well plates; read-out: Cell viability IC50, nM, Ba/F3 ERBB2-L755S. In outline: as §1

The target of another experiment is T7, Ba/F3 ERBB2-T798M (Homo sapiens, UniProt P04626, T798M, cells depend on it).
T7 construct: Ba/F3 cell lines were engineered to express human ERBB2 or EGFR kinases, rendering the cells IL-3 independent
In words: Cell viability assay (CellTiter Glo). The settings on record: 72 hours; 3000 cells per well, 96-well plates; read-out: Cell viability IC50, nM, Ba/F3 ERBB2-T798M. It is filed as cell-based, mouse. In outline:
as §1

Experiment [2] addresses T8, Ba/F3 ERBB2 A775_G776insYVMA (Homo sapiens, UniProt P04626, DUP772-775, cells depend on it).
T8 construct: Ba/F3 cell lines were engineered to express human ERBB2 or EGFR kinases, rendering the cells IL-3 independent
The experiment in a line: Cell viability assay (CellTiter Glo). The settings on record: 72 hours; 3000 cells per well, 96-well plates (Tables B3-B4); read-out: Cell viability IC50, nM, Ba/F3 ERBB2 A775_G776insYVMA. The experiment is classed as cell-based, mouse. In outline:
as §1

Experiment [3] addresses T9, phosphorylated ERBB2 (pERBB2) (Homo sapiens, UniProt P04626).
T9 construct: endogenous in cells; host or cells: BT-474
The experiment in a line: Detection of phosphorylated ERBB2 (pERBB2) by ELISA in BT-474 cells. The experiment is classed as cell-based. The settings on record: four hours incubation with compound, OD 450 nm. The gist of the method: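 BT-474 cells were treated for 4 h at 37 °C with four-fold compound dilutions from 10 μM to 0.01 nM final, then lysed. Phospho-ERBB2 in the lysates was measured by ELISA with TMB read-out at 450 nm. Relative activity was normalised between cell-free wells and 0.1% DMSO-treated cells.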
In general terms: An ELISA detects its analyte on a solid surface through an enzyme-linked reagent.

T2 sequence (P04626 whole entry, change not shown): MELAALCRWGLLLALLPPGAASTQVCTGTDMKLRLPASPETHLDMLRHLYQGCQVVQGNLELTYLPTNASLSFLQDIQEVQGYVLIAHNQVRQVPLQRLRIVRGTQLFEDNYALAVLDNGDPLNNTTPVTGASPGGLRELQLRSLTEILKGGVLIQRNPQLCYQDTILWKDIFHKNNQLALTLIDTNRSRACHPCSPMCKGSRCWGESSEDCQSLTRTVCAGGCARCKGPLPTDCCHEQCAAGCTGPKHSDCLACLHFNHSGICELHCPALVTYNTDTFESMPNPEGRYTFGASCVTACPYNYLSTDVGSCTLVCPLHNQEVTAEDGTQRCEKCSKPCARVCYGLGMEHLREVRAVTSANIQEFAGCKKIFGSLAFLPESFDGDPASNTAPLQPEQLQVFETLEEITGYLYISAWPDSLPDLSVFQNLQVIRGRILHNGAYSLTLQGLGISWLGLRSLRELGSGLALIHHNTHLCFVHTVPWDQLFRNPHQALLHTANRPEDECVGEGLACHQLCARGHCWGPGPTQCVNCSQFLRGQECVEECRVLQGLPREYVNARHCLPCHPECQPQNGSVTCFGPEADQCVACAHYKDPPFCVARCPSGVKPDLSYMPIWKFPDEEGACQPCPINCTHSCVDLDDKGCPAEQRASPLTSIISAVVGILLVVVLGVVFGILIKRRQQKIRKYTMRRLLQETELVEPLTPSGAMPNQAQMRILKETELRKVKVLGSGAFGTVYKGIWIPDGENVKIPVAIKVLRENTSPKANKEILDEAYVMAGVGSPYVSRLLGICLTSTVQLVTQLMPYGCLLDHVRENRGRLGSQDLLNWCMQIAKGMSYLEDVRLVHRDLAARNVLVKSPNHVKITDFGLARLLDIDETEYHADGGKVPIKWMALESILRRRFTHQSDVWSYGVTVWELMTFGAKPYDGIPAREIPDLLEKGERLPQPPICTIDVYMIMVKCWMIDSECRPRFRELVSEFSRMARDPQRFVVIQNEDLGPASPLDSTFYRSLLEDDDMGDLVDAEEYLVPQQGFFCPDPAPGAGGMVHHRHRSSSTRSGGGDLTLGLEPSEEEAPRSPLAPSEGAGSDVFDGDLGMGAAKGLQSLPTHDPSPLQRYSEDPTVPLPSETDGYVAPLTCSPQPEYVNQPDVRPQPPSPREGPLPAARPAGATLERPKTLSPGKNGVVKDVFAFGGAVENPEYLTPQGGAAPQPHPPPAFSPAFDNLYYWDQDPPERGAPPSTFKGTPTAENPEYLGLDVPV
T8 sequence (P04626 with tags, fused parts or gaps DUP772-775): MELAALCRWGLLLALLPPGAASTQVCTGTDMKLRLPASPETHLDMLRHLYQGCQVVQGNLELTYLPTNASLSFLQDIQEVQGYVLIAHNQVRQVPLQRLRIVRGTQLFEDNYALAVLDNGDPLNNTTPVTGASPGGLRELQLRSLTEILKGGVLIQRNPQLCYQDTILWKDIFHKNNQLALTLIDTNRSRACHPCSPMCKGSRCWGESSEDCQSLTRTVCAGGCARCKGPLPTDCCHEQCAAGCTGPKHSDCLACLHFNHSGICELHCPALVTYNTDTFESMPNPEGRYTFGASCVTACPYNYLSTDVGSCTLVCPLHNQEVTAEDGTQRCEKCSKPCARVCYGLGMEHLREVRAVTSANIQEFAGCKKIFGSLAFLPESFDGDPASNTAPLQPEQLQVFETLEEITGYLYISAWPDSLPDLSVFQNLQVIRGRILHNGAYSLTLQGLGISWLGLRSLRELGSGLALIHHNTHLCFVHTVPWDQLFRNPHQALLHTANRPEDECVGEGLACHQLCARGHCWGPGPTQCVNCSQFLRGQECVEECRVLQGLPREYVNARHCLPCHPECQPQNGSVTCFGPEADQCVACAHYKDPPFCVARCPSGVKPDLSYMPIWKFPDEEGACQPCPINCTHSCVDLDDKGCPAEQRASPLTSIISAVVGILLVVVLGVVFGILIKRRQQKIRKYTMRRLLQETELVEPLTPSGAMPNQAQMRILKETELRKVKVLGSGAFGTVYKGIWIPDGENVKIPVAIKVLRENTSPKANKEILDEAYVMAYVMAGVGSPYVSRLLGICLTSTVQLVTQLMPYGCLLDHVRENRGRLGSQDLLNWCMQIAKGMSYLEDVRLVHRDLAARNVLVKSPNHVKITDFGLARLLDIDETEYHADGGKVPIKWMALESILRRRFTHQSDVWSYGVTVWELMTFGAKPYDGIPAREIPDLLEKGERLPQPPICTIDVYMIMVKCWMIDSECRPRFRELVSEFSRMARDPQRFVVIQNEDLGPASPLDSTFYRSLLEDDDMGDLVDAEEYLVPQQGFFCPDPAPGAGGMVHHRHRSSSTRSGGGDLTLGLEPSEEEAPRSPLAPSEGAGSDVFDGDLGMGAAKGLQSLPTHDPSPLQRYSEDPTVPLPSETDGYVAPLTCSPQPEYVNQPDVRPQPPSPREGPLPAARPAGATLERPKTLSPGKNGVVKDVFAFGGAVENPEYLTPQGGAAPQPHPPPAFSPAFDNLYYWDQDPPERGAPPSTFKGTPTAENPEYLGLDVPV
T9 sequence (P04626 23-1255): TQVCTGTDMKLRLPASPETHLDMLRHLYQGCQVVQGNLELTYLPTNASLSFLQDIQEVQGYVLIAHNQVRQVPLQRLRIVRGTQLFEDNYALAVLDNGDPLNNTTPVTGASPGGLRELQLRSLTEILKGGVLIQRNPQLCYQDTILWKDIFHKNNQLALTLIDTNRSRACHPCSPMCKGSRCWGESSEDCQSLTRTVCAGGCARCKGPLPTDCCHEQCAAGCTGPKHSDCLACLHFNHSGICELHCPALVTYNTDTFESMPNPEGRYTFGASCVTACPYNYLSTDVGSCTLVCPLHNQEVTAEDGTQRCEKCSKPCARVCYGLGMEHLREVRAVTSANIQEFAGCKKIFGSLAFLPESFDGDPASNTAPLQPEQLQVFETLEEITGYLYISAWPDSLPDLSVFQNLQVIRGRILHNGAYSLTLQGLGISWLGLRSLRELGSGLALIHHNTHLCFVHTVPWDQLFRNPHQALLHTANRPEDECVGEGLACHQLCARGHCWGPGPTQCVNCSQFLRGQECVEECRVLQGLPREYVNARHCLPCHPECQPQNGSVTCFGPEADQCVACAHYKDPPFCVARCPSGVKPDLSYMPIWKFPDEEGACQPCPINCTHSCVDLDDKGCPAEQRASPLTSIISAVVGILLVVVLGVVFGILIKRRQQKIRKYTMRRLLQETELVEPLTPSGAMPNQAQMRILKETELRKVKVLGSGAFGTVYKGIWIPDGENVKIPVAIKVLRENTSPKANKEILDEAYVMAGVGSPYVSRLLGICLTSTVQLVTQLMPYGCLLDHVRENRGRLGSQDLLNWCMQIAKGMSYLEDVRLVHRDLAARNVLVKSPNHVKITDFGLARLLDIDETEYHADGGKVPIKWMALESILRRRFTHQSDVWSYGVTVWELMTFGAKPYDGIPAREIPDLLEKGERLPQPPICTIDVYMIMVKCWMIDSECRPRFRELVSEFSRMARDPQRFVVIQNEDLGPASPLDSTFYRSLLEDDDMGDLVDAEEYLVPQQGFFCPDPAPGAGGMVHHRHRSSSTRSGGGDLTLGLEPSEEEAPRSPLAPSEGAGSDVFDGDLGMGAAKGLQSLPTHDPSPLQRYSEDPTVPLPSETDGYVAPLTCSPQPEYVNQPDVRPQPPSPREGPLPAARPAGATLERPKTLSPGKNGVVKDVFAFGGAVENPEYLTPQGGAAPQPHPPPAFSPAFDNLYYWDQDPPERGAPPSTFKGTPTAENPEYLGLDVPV
T6 sequence (P04626 whole entry L755S): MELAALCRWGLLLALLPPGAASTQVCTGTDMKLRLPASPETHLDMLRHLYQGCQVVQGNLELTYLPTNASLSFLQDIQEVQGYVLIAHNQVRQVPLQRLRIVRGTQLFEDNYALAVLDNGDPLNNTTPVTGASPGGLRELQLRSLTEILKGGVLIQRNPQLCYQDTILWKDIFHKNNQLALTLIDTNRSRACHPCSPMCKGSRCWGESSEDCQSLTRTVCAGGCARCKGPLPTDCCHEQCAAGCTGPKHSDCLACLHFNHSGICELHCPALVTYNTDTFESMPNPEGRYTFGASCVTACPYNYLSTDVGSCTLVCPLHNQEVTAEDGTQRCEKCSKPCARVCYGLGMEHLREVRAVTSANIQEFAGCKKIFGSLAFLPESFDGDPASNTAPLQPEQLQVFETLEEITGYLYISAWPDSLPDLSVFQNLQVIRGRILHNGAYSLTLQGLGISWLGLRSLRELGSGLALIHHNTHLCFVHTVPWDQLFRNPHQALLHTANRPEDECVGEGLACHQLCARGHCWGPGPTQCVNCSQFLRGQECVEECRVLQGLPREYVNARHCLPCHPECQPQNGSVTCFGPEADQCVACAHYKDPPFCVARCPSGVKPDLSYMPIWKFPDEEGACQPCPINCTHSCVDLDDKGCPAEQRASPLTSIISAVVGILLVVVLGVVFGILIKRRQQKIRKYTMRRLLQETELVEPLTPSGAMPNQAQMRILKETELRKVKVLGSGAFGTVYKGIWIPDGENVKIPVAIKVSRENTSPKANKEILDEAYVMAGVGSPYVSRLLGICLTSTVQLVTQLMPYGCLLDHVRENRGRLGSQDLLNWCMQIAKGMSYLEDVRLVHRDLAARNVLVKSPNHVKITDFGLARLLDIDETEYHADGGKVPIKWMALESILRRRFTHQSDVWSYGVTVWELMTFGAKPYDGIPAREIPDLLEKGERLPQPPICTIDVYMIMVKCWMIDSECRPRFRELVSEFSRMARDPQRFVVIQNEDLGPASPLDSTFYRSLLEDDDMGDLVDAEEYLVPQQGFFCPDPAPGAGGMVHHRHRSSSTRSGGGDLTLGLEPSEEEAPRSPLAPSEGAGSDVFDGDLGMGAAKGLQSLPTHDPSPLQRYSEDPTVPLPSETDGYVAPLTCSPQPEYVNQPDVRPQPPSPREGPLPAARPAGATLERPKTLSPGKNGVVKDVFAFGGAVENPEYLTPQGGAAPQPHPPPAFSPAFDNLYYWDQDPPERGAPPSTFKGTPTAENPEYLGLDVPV

By IC50 is commonly meant the concentration needed to halve the response being measured. Take `Cc1cc(Nc2ncnc3ccc(NC4=NC(C)(C)CO4)cc23)ccc1Oc1ccn2ncnc2c1` [Tucatinib, tucatinib, reference compound]: the GI50 was 25.3 nM in [1]; 26.5 nM on Ba/F3 ERBB2 wt; 193 nM at Ba/F3 ERBB2-G776VC; 63.5 nM at Ba/F3 ERBB2-L869R; 11 nM at Ba/F3 ERBB2-V777L; 228 nM on Ba/F3 ERBB2-L755S. In addition, the results for the GI50 (on Ba/F3 ERBB2-T798M; in experiment [2]) were 1370 nM and 356 nM, respectively. For the same molecule, the IC50 in experiment [3] amounted to 23.1 nM.
As for `CC#CC(=O)Nc1cc2c(Nc3ccc(Oc4ccn5ncnc5c4)c(C)c3)ncnc2cc1OCCN(C)C` [Compound 150, N-[7-[2-(dimethylamino)ethoxy]-4-[(3-methyl-4-[[1,2,4]triazolo[1,5-a]pyridin-7-yloxy]phenyl)amino]quinazolin-6-yl]but-2-ynamide], the GI50 worked out at 2.63 nM in [1]; 2.12 nM at Ba/F3 ERBB2 wt; 13.6 nM on Ba/F3 ERBB2-G776VC; 4.31 nM on Ba/F3 ERBB2-L869R; 1.73 nM on Ba/F3 ERBB2-V777L; 11.4 nM at Ba/F3 ERBB2-L755S. The GI50 at Ba/F3 ERBB2-T798M was determined as 56.9 nM; in experiment [2], 8.42 nM. In experiment [3], the IC50 worked out at 7.05 nM.
On to `CC#CC(=O)Nc1ccc2ncnc(Nc3ccc(Oc4ccn5ncnc5c4)c(C)c3)c2c1` [Compound 1, N-[4-[(3-methyl-4-[[1,2,4]triazolo[1,5-a]pyridin-7-yloxy]phenyl)amino]quinazolin-6-yl]but-2-ynamide], for which the GI50 in experiment [1] is 0.65 nM; at Ba/F3 ERBB2 wt it was 1.5 nM; on Ba/F3 ERBB2-G776VC it was 2.6 nM; on Ba/F3 ERBB2-L869R, less than 1 nM; on Ba/F3 ERBB2-V777L it was less than 1 nM; at Ba/F3 ERBB2-L755S, roughly 1 nM. The GI50 came out at 15 nM on Ba/F3 ERBB2-T798M and 4.4 nM in experiment [2]. The half-maximal inhibitory concentration (IC50) in experiment [3] turned out to be 10.3 nM.
